# Data as given in patent publication US6825170B2, “6-O-acyl ketolide antibacterials” (Ortho-McNeil Pharmaceutical, Inc., priority 2001, dated 2004).
# Assays:
# Test in all cases: MIC, microdilution broth method (NCCLS)
# Assay type in all cases: cell-based
# Conditions in all cases: 35° C., 16-20 hours
# E. faecalis ATCC29212 = system: E. faecalis ATCC29212
# Procedure: (§1) Minimal inhibitory concentration (MIC) has been an indicator of in vitro antibacterial activity widely used in the art. The in vitro antimicrobial activity of the compounds was determined by the microdilution broth method following the test method from the National Committee for Clinical Laboratory Standards (NCCLS). This method is described in the NCCLS Document M7-A4, Vol.17, No.2, “Methods for Dilution Antimicrobial Susceptibility Test for Bacteria that Grow Aerobically—Fourth Edition”, which is incorporated herein by reference.
# (§2) In this method two-fold serial dilutions of drug in cation adjusted Mueller-Hinton broth are added to wells in microdilution trays. The test organisms are prepared by adjusting the turbidity of actively growing broth cultures so that the final concentration of test organism after it is added to the wells is approximately 5×10^4 CFU/well.
# (§3) Following inoculation of the microdilution trays, the trays are incubated at 35° C. for 16-20 hours and then read. […] The amount of growth in the wells containing the test compound is compared with the amount of growth in the growth-control wells (no test compound) used in each tray. As set forth in Table 1, compounds of the present invention were tested against a variety of Gram positive and Gram negative pathogenic bacteria resulting in a range of activities depending on the organism tested.
# H. influenzae ATCC49247 = system: H. influenzae ATCC49247
# Procedure: as §1, §2, §3
# S. aureus ATCC29213 = system: S. aureus ATCC29213
# Procedure: as §1, §2, §3
# S. pneumoniae ATCC49619 = system: S. pneumoniae ATCC49619
# Procedure: as §1, §2, §3
Compound,MIC (C: E. faecalis ATCC29212) (E. faecalis ATCC29212) [µg/mL],MIC (E: H. influenzae ATCC49247) (H. influenzae ATCC49247) [µg/mL],MIC (B: S. aureus ATCC29213) (S. aureus ATCC29213) [µg/mL],MIC (D: S. pneumoniae ATCC49619) (S. pneumoniae ATCC49619)
CCC1OC(=O)C(C)C(=O)C(C)C(OC2OC(C)CC(N(C)C)C2O)C(C)(OC(=O)OCC=Cc2cnc(-c3ccccc3)nc2)CC(C)C(=O)C(C)C2NC(=O)OC12C (stereo not drawn) [Compound 72],0.06,2,0.25,0.03 µg/mL
C=CCSC(=O)O[C@]1(C)C[C@@H](C)C(=O)[C@H](C)[C@H]2NC(=O)O[C@]2(C)[C@@H](CC)OC(=O)[C@H](C)C(=O)[C@H](C)[C@H]1O[C@@H]1O[C@H](C)C[C@H](N(C)C)[C@H]1O [Compound 832],0.5,8,4,0.25 µg/mL
CC[C@H]1OC(=O)[C@H](C)C(=O)[C@H](C)[C@@H](O[C@@H]2O[C@H](C)C[C@H](N(C)C)[C@H]2O)[C@](C)(OC(=O)NN=CCc2ccc(-c3ncccn3)cc2)C[C@@H](C)C(=O)[C@H](C)[C@H]2NC(=O)O[C@@]21C [Compound 826],2,8,8,0.25 µg/mL
CCC1OC(=O)C(C)C(=O)C(C)C(OC2OC(C)CC(N(C)C)C2O)C(C)(OC(=O)OCC=Cc2ccc(-n3cccn3)cc2F)CC(C)C(=O)C(C)C2NC(=O)OC12C (stereo not drawn) [Compound 30],0.06,1,0.12,≦0.015 μg/mL

# More lines, now with the values ahead:
MIC (C: E. faecalis ATCC29212) (E. faecalis ATCC29212) [µg/mL],MIC (E: H. influenzae ATCC49247) (H. influenzae ATCC49247) [µg/mL],MIC (B: S. aureus ATCC29213) (S. aureus ATCC29213) [µg/mL],MIC (D: S. pneumoniae ATCC49619) (S. pneumoniae ATCC49619),Compound
0.12,2,0.5,0.06 µg/mL,CC[C@H]1OC(=O)[C@H](C)C(=O)[C@H](C)[C@@H](O[C@@H]2O[C@H](C)C[C@H](N(C)C)[C@H]2O)[C@](C)(OC(=O)SCc2ccc(-n3cncn3)cc2)C[C@@H](C)C(=O)[C@H](C)[C@H]2NC(=O)O[C@@]21C [Compound 840]
0.25,8,4,0.06 µg/mL,CC[C@H]1OC(=O)[C@H](C)C(=O)[C@H](C)[C@@H](O[C@@H]2O[C@H](C)C[C@H](N(C)C)[C@H]2O)[C@](C)(OC(=O)N(C)NCc2ccc(-c3ccccn3)cc2)C[C@@H](C)C(=O)[C@H](C)[C@H]2NC(=O)O[C@@]21C [Compound 818]
0.12,–,0.25,0.06 µg/mL,CCC1OC(=O)C(C)C(=O)C(C)C(OC2OC(C)CC(N(C)C)C2O)C(C)(OC(=O)NOCC=Cc2ccc(-c3cnccn3)cc2)CC(C)C(=O)C(C)C2NC(=O)OC12C (stereo not drawn) [Compound 606]
0.25,–,0.5,0.12 µg/mL,CCC1OC(=O)C(C)C(=O)C(C)C(OC2OC(C)CC(N(C)C)C2O)C(C)(OC(=O)NOCCc2ccc(-c3cnccn3)cc2)CC(C)C(=O)C(C)C2NC(=O)OC12C (stereo not drawn) [Compound 578]
0.06,–,0.12,≦0.015 μg/mL,CCC1OC(=O)C(C)C(=O)C(C)C(OC2OC(C)CC(N(C)C)C2O)C(C)(OC(=O)OCC=Cc2ccc(-c3cnccn3)cc2)CC(C)C(=O)C(C)C2NC(=O)OC12C (stereo not drawn) [Compound 19]
0.25,–,1,0.12 µg/mL,CC[C@H]1OC(=O)[C@H](C)C(=O)[C@H](C)[C@@H](O[C@@H]2O[C@H](C)C[C@H](N(C)C)[C@H]2O)[C@](C)(OC(=O)N(C)OCCc2ccc(-c3ncccn3)cc2)C[C@@H](C)C(=O)[C@H](C)[C@H]2NC(=O)O[C@@]21C [Compound 621]
0.06,–,0.12,≦0.015 μg/mL,CCC1OC(=O)C(C)C(=O)C(C)C(OC2OC(C)CC(N(C)C)C2O)C(C)(OC(=O)OCC=Cc2ccc3nccnc3c2)CC(C)C(=O)C(C)C2NC(=O)OC12C (stereo not drawn) [Compound 44]
